Here are results for eleven molecules from patent US20250320206A1, “STAT6 DEGRADERS” (Gilead Sciences, Inc., priority 2024, published 2025).

For one assay, the target named is T1, STAT6 (Homo sapiens, UniProt P42226).
T1 construct: These cells express endogenous STAT6; host or cells: HeLa LgBiT clone 4.14
T1 sequence (P42226 1-847): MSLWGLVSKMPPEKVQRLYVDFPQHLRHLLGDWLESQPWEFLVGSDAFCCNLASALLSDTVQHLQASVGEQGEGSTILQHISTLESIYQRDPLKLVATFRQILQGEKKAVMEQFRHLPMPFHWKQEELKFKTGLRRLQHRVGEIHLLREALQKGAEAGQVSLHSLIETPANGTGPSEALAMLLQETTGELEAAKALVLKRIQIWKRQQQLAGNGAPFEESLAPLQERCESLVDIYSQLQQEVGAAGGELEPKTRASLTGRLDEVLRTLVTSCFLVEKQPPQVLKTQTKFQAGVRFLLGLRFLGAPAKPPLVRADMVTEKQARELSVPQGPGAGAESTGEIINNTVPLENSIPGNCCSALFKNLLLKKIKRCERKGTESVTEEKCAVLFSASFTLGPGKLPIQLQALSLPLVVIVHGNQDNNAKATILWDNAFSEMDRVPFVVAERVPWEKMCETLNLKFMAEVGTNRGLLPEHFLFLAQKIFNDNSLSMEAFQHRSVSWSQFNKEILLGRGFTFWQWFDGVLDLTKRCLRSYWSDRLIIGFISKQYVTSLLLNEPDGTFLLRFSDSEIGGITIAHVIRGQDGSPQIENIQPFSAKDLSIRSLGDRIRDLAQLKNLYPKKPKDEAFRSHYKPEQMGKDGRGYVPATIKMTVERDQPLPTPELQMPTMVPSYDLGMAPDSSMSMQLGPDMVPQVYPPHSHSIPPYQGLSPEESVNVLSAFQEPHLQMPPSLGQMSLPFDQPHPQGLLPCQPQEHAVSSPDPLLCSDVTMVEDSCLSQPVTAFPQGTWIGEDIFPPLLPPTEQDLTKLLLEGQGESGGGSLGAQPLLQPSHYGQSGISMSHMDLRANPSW
Briefly: Stat6 Degrader Assay (HiBiT based, HeLa LgBiT clone 4.14). The assay is classed as cell-based. As to conditions: HeLa LgBiT clone 4.14 HiBiT-STAT6, 4-24 h incubation; values given for compounds with >80% Emax; geometric mean; read-out: STAT6 degradation DC50. The gist of the method: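 Luminescence from HiBiT-STAT6 complementing stably expressed LgBiT in HeLa clone 4.14 reports remaining STAT6 protein. Cells (5000/well) exposed to compound for 4-24 h at 37° C; read 0.5 h after Nano-Glo addition. 100% degradation window set with 50 μM terfenadine; percent degradation plotted against concentration.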
On the technique in general: With HiBiT, luminescence reflects the tagged protein that the partner subunit can reach.
One may read the DC50 as the midpoint of the concentration-degradation curve. For the molecule `CNc1c(F)cn(-c2ccnc3c2cc([C@H](C)N2CC=C(c4c(C)cc(C(=O)N5CCC(CN6CCN(Cc7ccc8c(c7)C7(CC7)C(=O)N8C7CCC(=O)NC7=O)C[C@@H]6C)CC5)cc4F)CC2)n3C)c(=O)c1F` (stereo partly drawn) [Example 3u4, 3-(5′-(((S)-4-((1-(4-(1-((S)-1-(4-(3,5-difluoro-4-(methylamino)-2-oxopyridin-1 (2H)-yl)-1-methyl-1H-pyrrolo[2,3-b]pyridin-2-yl)ethyl)-1,2,3,6-tetrahydropyridin-4-yl)-3-fluoro-5-methyl-benzoyl)-piperidin-4-yl)methyl)-3-methylpiperazin-1-yl)methyl)-2′-oxospiro[cyclopropane-1,3′-indolin]-1′-yl)piperidine-2,6-dione], the DC50 came out at 4 nM.

`Cc1cc(C(=O)N2CCC(CN3CCN(Cc4cc5c(cc4F)n([C@H]4CCC(=O)NC4=O)c(=O)n5C4CC4)CC3)CC2)cc(F)c1C1=CCN([C@@H](C)c2cc3c(-n4ccc5c(c4=O)CCN5)ccnc3n2C)CC1` (single isomer, unassigned) [Example 3u147]: the DC50 was determined as 1.6 nM.

Another assay has as its system Eotaxin-3 release in human whole blood stimulated with IL-4. Briefly: Human Whole Blood Eotaxin-3 Assay (IL-4 stimulated eotaxin-3 release). The assay is classed as cell-based. As to conditions: IL-4 stimulation, 48 h, values given for compounds with >80% Emax, geometric mean. How it is done: Human Whole Blood Eotaxin-3 Assay
This was a human whole blood assay using recombinant human Interleukin 4 to stimulate the blood and measuring the ability of the test compounds to inhibit eotaxin-3 release. The biological activities of the test compounds have been tested in human whole blood stimulated with IL-4 measuring Eotaxin-3 release. The test compounds were added to 384 well clear flat-bottom plate in a 4-fold serial dilution in triplicates using a liquid handler. Human whole blood stabilized in lithium-heparin tubes was added in a volume of 65 μL per well, resulting in a final DMSO concentration of 0.5%. The plate is incubated for 2 h at 37° C. under 5% CO2/95% air. Subsequently, 5 μL of recombinant human IL-4 (R&D Systems, cat #204-ILB) was added to the wells to a final concentration of […]. The plate was incubated for 48 h at 37° C. under 5% CO2/95% air. The plate was spun down for 10 minutes at 500×g and 20 μL supernatant was harvested and transferred to a 384 well v-bottom plate using a liquid handler and stored at −20° C. until further analysis. 10 μL supernatant was used to measure the level of Eotaxin-3 (CCL26) using Human Eotaxin-3 MSD kit from Mesocsale (Cat #K251UEK-4). The assay was performed according to the manufacture instructions.
The data from the human whole blood eotaxin-3 assay is shown in FIG. 2 for Examples 3u208, 3u246, 3u118, 3u119, 3u120, and 3u74 (where the effect in % is plotted against the test concentration in M on a log scale).
As a reminder, the EC50 is the concentration at which the effect is half-maximal. Read a low EC50 as greater potency. Take `CNc1ccn(-c2ccnc3c2cc(CN2CCC(c4c(F)cc(C(=O)N5CCC(CN6CCN(c7cc8c(cc7F)n(C7CCC(=O)NC7=O)c(=O)n8C)CC6)CC5)cc4F)CC2)n3C)c(=O)n1` (centres unmarked) [Example 3h43, 3-(5-(4-((1-(3,5-difluoro-4-(1-((1-methyl-4-(4-(methylamino)-2-oxopyrimidin-1 (2H)-yl)-1H-pyrrolo[2,3-b]pyridin-2-yl)methyl)piperidin-4-yl)benzoyl)piperidin-4-yl)methyl)piperazin-1-yl)-6-fluoro-3-methyl-2-oxo-2,3-dihydro-1H-benzo[d]imidazol-1-yl)piperidine-2,6-dione]: the EC50 was determined as 7.4 nM.

Consider `CNc1ccn(-c2ccnc3c2cc([C@H](C)N2CC=C(c4c(C)cc(C(=O)N5CCC(CN6CCN(Cc7ccc8c(c7)C7(CCOCC7)C(=O)N8C7CCC(=O)NC7=O)CC6)CC5)cc4F)CC2)n3C)c(=O)c1` (stereo partly drawn) [Example 3u257, 3-(5-((4-((1-(3-fluoro-5-methyl-4-(1-((S)-1-(1-methyl-4-(4-(methylamino)-2-oxopyridin-1 (2H)-yl)-1H-pyrrolo[2,3-b]pyridin-2-yl)ethyl)-1,2,3,6-tetrahydropyridin-4-yl)benzoyl)-piperidin-4-yl)methyl)piperazin-1-yl)methyl)-2-oxo-2′,3′,5′,6′-tetrahydrospiro[indoline-3,4′-pyran]-1-yl)piperidine-2,6-dione], for which the EC50 was 24.2 nM.

`CNc1cc(=O)n(-c2ccnc3c2cc([C@H](C)N2CC=C(c4c(C)cc(C(=O)N5CCC(CN6CCN(c7cc8c(cc7F)N(C7CCC(=O)NC7=O)C(=O)C8(C)C)CC6)CC5)cc4F)CC2)n3C)cc1F` (stereo partly drawn) [Example 3u306, 3-(6-fluoro-5-(4-((1-(3-fluoro-4-(1-((S)-1-(4-(5-fluoro-4-(methylamino)-2-oxopyridin-1 (2H)-yl)-1-methyl-1H-pyrrolo[2,3-b]pyridin-2-yl)ethyl)-1,2,3,6-tetrahydropyridin-4-yl)-5-methylbenzoyl)piperidin-4-yl)methyl)piperazin-1-yl)-3,3-dimethyl-2-oxoindolin-1-yl)piperidine-2,6-dione] had an EC50 of 194 nM.

In the case of `CNc1cc(=O)n(-c2ccnc3c2cc([C@H](C)N2CC=C(c4c(C)cc(C(=O)N5CCC(CN6CCN(c7cccc8c7n(C)c(=O)n8C7CCC(=O)NC7=O)CC6)CC5)cc4F)CC2)n3C)cc1F` (stereo partly drawn) [Example 3u271, 3-(4-(4-((1-(3-fluoro-4-(1-((S)-1-(4-(5-fluoro-4-(methylamino)-2-oxopyridin-1 (2H)-yl)-1-methyl-1H-pyrrolo[2,3-b]pyridin-2-yl)ethyl)-1,2,3,6-tetrahydropyridin-4-yl)-5-methylbenzoyl)-piperidin-4-yl)methyl)piperazin-1-yl)-3-methyl-2-oxo-2,3-dihydro-1H-benzo[d]imidazol-1-yl)-piperidine-2,6-dione], the EC50 worked out at 3.3 nM.

As for `C[C@H]1CN(Cc2ccc3c(c2)n(C)c(=O)n3C2CCC(=O)NC2=O)CCN1CC1CCN(C(=O)c2cc(F)c(C3=CCN([C@@H](C)c4cc5c(-n6cc(F)c7c(c6=O)CCN7)ccnc5n4C)CC3)c(F)c2)CC1` (stereo partly drawn) [Example 3u8, 3-(5-(((S)-4-((1-(3,5-difluoro-4-(1-((S)-1-(4-(7-fluoro-4-oxo-1,2,3,4-tetrahydro-5H-pyrrolo[3,2-c]pyridin-5-yl)-1-methyl-1H-pyrrolo[2,3-b]pyridin-2-yl)ethyl)-1,2,3,6-tetrahydropyridin-4-yl)benzoyl)piperidin-4-yl)methyl)-3-methylpiperazin-1-yl)methyl)-3-methyl-2-oxo-2,3-dihydro-1H-benzo[d]imidazol-1-yl)piperidine-2,6-dione], the response was half-maximal at 5.9 nM (EC50).

As for `CNc1ccn(-c2ccnc3c2cc([C@H](C)N2CC=C(c4c(C)cc(C(=O)N5CCC(CN6CCN(c7cc8c(cc7F)n(C7CCC(=O)NC7=O)c(=O)n8C)CC6)CC5)cc4F)CC2)n3C)c(=O)c1F` (stereo partly drawn) [Example 3u273, 3-(6-fluoro-5-(4-((1-(3-fluoro-4-(1-((S)-1-(4-(3-fluoro-4-(methylamino)-2-oxopyridin-1 (2H)-yl)-1-methyl-1H-pyrrolo[2,3-b]pyridin-2-yl)ethyl)-1,2,3,6-tetrahydropyridin-4-yl)-5-methylbenzoyl)piperidin-4-yl)methyl)piperazin-1-yl)-3-methyl-2-oxo-2,3-dihydro-1H-benzo[d]imidazol-1-yl)piperidine-2,6-dione], a half-maximal effect (EC50) was put at 31.8 nM.

Turning to `CNc1cc(=O)n(-c2ccnc3c2cc([C@H](C)N2CC=C(c4c(C)cc(C(=O)N5CCC(CN6CCN(c7ccc8c(c7)C7(CC7)C(=O)N8[C@H]7CCC(=O)NC7=O)C[C@@H]6C)CC5)cc4F)CC2)n3C)cc1F` (single isomer, unassigned) [Example 3u65], a half-maximal effect (EC50) was put at 93.5 nM.

Regarding `CNc1ccn(-c2ccnc3c2cc([C@H](C)N2CC=C(c4c(C)cc(C(=O)N5CCC(CN6CCN(Cc7ccc8c(c7)n(C7CC7)c(=O)n8C7CCC(=O)NC7=O)C[C@@H]6C)CC5)cc4F)CC2)n3C)c(=O)c1OC` (stereo partly drawn) [Example 3u135, 3-(3-cyclopropyl-5-(((S)-4-((1-(3-fluoro-4-(1-((S)-1-(4-(3-methoxy-4-(methylamino)-2-oxopyridin-1 (2H)-yl)-1-methyl-1H-pyrrolo[2,3-b]pyridin-2-yl)ethyl)-1,2,3,6-tetrahydropyridin-4-yl)-5-methylbenzoyl)piperidin-4-yl)methyl)-3-methylpiperazin-1-yl)methyl)-2-oxo-2,3-dihydro-1H-benzo[d]imidazol-1-yl)piperidine-2,6-dione], the EC50 stood at 185 nM.

`CNc1cc(=O)n(-c2ccnc3c2cc([C@H](C)N2CC=C(c4c(C)cc(C(=O)N5CCC(CN6CCN(Cc7ccc8c(c7)C7(CC7)C(=O)N8C7CCC(=O)NC7=O)C[C@@H]6C)CC5)cc4F)CC2)n3C)cc1OC` (stereo partly drawn) [Example 3u117, 3-(5′-(((S)-4-((1-(3-fluoro-4-(1-((S)-1-(4-(5-methoxy-4-(methylamino)-2-oxopyridin-1 (2H)-yl)-1-methyl-1H-pyrrolo[2,3-b]pyridin-2-yl)ethyl)-1,2,3,6-tetrahydropyridin-4-yl)-5-methylbenzoyl)piperidin-4-yl)methyl)-3-methylpiperazin-1-yl)methyl)-2′-oxospiro[cyclopropane-1,3′-indolin]-1′-yl)piperidine-2,6-dione] displayed an EC50 of 1210 nM.
